From patent US5770590A, “Cyclic compounds, their prudiction and use” (Takeda Chemical Industries, Ltd., priority 1995, dated 1998)
pIC50: −log10 of the molar value.

Key:
[1] = test system: plasma extravasation induced by capsaicin in trachea; assay: Inhibitory effect on plasma extravasation induced by capsaicin in trachea of guinea pigs; assay type: in vivo, guinea pigs (Hartley type white male); settings: Table 3, Dunnett's test *p < 0.05, **p < 0.01, ***p < 0.001
Experimental: [Inhibitory effect on plasma extravasation induced by capsaicin in trachea of guinea pigs] Guinea pigs (Hartley type white male guinea pige), (n=6) were anesthetized with 35 mg/kg of pentobarbital injected intraperitoneally (i.p.), then test compounds were administered intravenously (i.v.). After 5 minutes, a mixed solution of capsaicin (150 μg/kg) and Evans' blue dye (20 mg/kg) was administered intravenously to cause reaction. Ten minutes later, test animals were sacrificed by cutting the aorta, then perfused through pulmonary artery with 50 ml of physiological saline. The trachea was excised, and its wet weight was measure. The trachea was incubated at room temperature in 1 ml of acetone-0.3% sodium sulfate (7:3) overnight and Evans' blue dye was extracted from the trachea. The extract solution was centrifuged at 2800 rpm for 5 minutes. The amount of Evans' blue dye in the supernatant was quantified by measuring absorbance at […]. Plasma extravasation was expressed in terms of the amount of Evans' blue dye (μg) relative to the weight of the trachea (g). The efficacy of the drug was evaluated by calculating the % inhibition in accordance with the following formula, or expressed in terms of [formula] A: the amount of Evan's blue dye (μg/g) in each test animal B: The mean amount of Evan's blue dye (μg/g) of the group untreated with capsaicin.

[2] = target: T1, substance P receptor (receptor from human lymphoblast cells (IM-9)) (Homo sapiens, UniProt P25103); assay: Radioligand receptor binding inhibitory activity using receptor from human lymphoblast cells (IM-9), 125I-BHSP; settings: Table 1, IM-9 receptor, 25° C., 30 minutes
T1 construct: The receptor was prepared from human lymphoblast cells (IM-9); endogenous in cells; host or cells: IM-9 human lymphoblast cells (crude membranes)
T1 sequence (P25103 whole entry): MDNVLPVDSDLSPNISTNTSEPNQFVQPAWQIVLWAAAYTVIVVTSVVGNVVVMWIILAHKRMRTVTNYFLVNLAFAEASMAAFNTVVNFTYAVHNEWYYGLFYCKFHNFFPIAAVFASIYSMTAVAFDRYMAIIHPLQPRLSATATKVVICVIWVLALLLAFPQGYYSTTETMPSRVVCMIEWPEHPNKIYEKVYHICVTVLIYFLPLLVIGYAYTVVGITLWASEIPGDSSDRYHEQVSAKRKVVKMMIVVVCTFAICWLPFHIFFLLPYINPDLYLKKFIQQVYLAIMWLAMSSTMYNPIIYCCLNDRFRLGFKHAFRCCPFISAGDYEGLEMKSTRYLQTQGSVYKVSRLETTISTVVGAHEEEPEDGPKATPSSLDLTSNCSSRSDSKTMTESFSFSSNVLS
Experimental: The receptor was prepared from human lymphoblast cells (IM-9). IM-9 cells (2×10^5 cells/ml) were inoculated and incubated for 3 days (one liter), which was then subjected to centrifuge for 5 minutes at 500×g to obtain cell pellets.
After washing three times with 250 ul of 50 mM of Tris-HCl buffer (pH 7.4) containing 0.02% bovine serum albumin, the radioactivity remaining on the filter was determined with a gamma counter. Before use, the filter was immersed in 0.1% polyethyleneimine for 24 hours and air-dried.

| SMILES | Inhibition of plasma extravasation ([1]; dose 100 μg/kg i.v.) | Inhibition of plasma extravasation ([1]; dose 10 μg/kg i.v.) | also measured |
| --- | --- | --- | --- |
| Cc1cnc2c(c1-c1ccccc1)C(=O)N(Cc1cc(C(F)(F)F)cc(C(F)(F)F)c1)CCO2 [Example 23, 4-[3,5-Bis(trifluoromethyl)benzyl]-2,3,4,5-tetrahydro-7-methyl-5-oxo-6-phenylpyrido[3,2-f][1,4]oxazepine] | 64.0% |  |  |
| Cc1ccc(-c2c3n(c(=O)c4ncccc24)C[C@@H](C)CN(Cc2cc(C(F)(F)F)cc(C(F)(F)F)c2)C3=O)cc1 [Example 14, (9S)-7-[3,5-Bis(trifluoromethyl)benzyl]-6,7,8,9,10,12-hexahydro-9-methyl-5-(4-methylphenyl)-6,12-dioxo[1,4]diazepino[2,1-g][1,7]naphthyridine] |  |  | pIC50 [2]: 9.55 |
| Cc1ccc(-c2c3n(c(=O)c4ncccc24)CCC(C)CN(Cc2cc(C(F)(F)F)cc(C(F)(F)F)c2)C3=O)cc1 (racemic) [Example 16, (+/-)-7-[3,5-Bis(trifluoromethyl)benzyl]-6,7,8,9,10,11-hexahydro-9-methyl-5-(4-methylphenyl)-6,13-dioxo-13H-[1,4]diazocino[2,1-g][1,7]naphthyridine] |  | 60.5% |  |
| Cc1cnc2c(c1-c1ccccc1)C(=O)N(Cc1cc(C(F)(F)F)cc(C(F)(F)F)c1)CCCO2 [Example 24, 5-[3,5-Bis(trifluoromethyl)benzyl]-2,3,4,5-tetrahydro-8-methyl-6-oxo-7-phenyl-6H-pyrido[2,3-b][1,5]oxazocine] | 53.1% |  |  |
| CC1CCn2c(c(-c3ccccc3)c3cccnc3c2=O)C(=O)N(Cc2cc(C(F)(F)F)cc(C(F)(F)F)c2)C1 (racemic) [Example 15, (+/-)-7-[3,5-Bis(trifluoromethyl)benzyl]-6,7,8,9,10,11-hexahydro-9-methyl-6,13-dioxo-5-phenyl-13H-[1,4]diazocino[2,1-g][1,7]naphthyridine] |  | 68.4% |  |
| O=C1c2c(-c3ccccc3)ccnc2OCCCN1Cc1cc(C(F)(F)F)cc(C(F)(F)F)c1 [Example 22, 5-[3,5-Bis(trifluoromethyl)benzyl]-2,3,4,5-tetrahydro-6-oxo-7-phenyl-6H-pyrido[2,3-b][1,5]oxazocine] | 41.2% |  |  |
